Experiment: Antagonist activity at CCR2 in human PBMCs assessed as inhibition of MCP1-induced chemotaxis
Work on `CSc1ccc(C(=O)NC2CC(NC(=O)OCc3ccccc3)CCC2NC(=O)CNC(=O)c2cccc(C(F)(F)F)c2)cc1` (racemic) [(+/-)-benzyl3-(4-(methylthio)benzamido)-4-(2-(3-(trifluoromethyl)benzamido)acetamido)cyclohexylcarbamate] yielded an IC50 of 5.1 nM. In the case of `CSc1ccc(CNC2CC(N(C)C)CCC2NC(=O)CNC(=O)c2cccc(C(F)(F)F)c2)cc1` (racemic) [(+/-)-N-(2-(4-(dimethylamino)-2-(4-(methylthio)benzylamino)cyclohexylamino)-2-oxoethyl)-3-(trifluoromethyl)benzamide], the IC50 is reported as 22.5 nM. For `CSc1ccc(C(=O)NC2CC(N)CCC2NC(=O)CNC(=O)c2cc(C(F)(F)F)ccc2N)cc1` (racemic) [(+/-)-2-amino-N-(2-(4-amino-2-(4-(methylthio)benzamido)cyclohexylamino)-2-oxoethyl)-5-(trifluoromethyl)benzamide], the IC50 was 13.5 nM. In the case of `CC(=O)Nc1ccc(CNC2CC(N(C)C)CCC2NC(=O)CNC(=O)c2cccc(C(F)(F)F)c2)cc1` (racemic) [(+/-)-N-(2-(2-(4-acetamidobenzylamino)-4-(dimethylamino)cyclohexylamino)-2-oxoethyl)-3-(trifluoromethyl)benzamide], the IC50 is reported as 17.4 nM. `Cc1ccc(CNC2CC(N(C)C)CCC2NC(=O)CNC(=O)c2cccc(C(F)(F)F)c2)cc1` (racemic) [(+/-)-N-(2-(4-(dimethylamino)-2-(4-methylbenzylamino)cyclohexylamino)-2-oxoethyl)-3-(trifluoromethyl)benzamide] gave an IC50 of 12.6 nM. For `CN(C)C1CCC(NC(=O)CNC(=O)c2cccc(C(F)(F)F)c2)C(NCc2ccc3[nH]ccc3c2)C1` (racemic) [(+/-)-N-(2-(2-((1H-indol-5-yl)methylamino)-4-(dimethylamino)cyclohexylamino)-2-oxoethyl)-3-(trifluoromethyl)benzamide], the IC50 was 23 nM. For `COc1ccc(CNC2CC(N(C)C)CCC2NC(=O)CNC(=O)c2cccc(C(F)(F)F)c2)cc1` (racemic) [(+/-)-N-(2-(4-(dimethylamino)-2-(4-methoxybenzylamino)cyclohexylamino)-2-oxoethyl)-3-(trifluoromethyl)benzamide], the IC50 was 41.4 nM.
